Measured values from ChEMBL document CHEMBL3352695, “Synthesis and biological evaluation of novel isoxazoles and triazoles linked 6-hydroxycoumarin as potent cytotoxic agents” (Bioorg Med Chem Lett, 2014).

Tests used:
Assay type in all cases: functional, cell-based
A549 = assay: Cytotoxicity against human A549 cells after 48 hrs by MTT assay; details: A549, 48 h
[1] = Cytotoxicity against human PC3 cells after 48 hrs by MTT assay; details: PC-3, 48 h
[2] = Cytotoxicity against human HL60 cells after 48 hrs by MTT assay; details: HL-60, 48 h
[3] = Cytotoxicity against human HCT116 cells after 48 hrs by MTT assay; details: HCT-116, 48 h
COLO 205 = assay: Cytotoxicity against human COLO205 cells after 48 hrs by MTT assay; details: COLO 205, 48 h

Compound: C#CCOc1ccc2oc(=O)ccc2c1
- IC50 (A549): 24 µM

Compound: O=c1ccc2cc(OCc3cc(-c4ccccc4Cl)no3)ccc2o1
- IC50 [1]: 18.2 µM

Compound: O=c1ccc2cc(OCc3cc(-c4ccccc4)no3)ccc2o1
- IC50 [1]: 53.2 µM
- IC50 [2]: 43.3 µM

Compound: O=c1ccc2cc(OCc3cc(-c4ccc5ccccc5c4)no3)ccc2o1
- IC50 [3]: 55.9 µM
- IC50 (COLO 205): 48.7 µM
- IC50 [2]: 55.7 µM

Compound: O=c1ccc2cc(OCc3cc(-c4cccc5ccccc45)no3)ccc2o1
- IC50 [3]: 51.5 µM
- IC50 (COLO 205): 47.2 µM
- IC50 [2]: 41.6 µM

Compound: O=c1ccc2cc(OCc3cc(-c4cccc(Cl)c4)no3)ccc2o1
- IC50 [3]: 42.1 µM
- IC50 (COLO 205): 32.5 µM
- IC50 [2]: 50.6 µM

Compound: O=c1ccc2cc(OCc3cc(-c4ccc(Cl)cc4)no3)ccc2o1
- IC50 [3]: 55.8 µM
- IC50 (COLO 205): 44.5 µM
- IC50 [2]: 44.6 µM

Compound: O=c1ccc2cc(OCc3cc(-c4ccccc4[N+](=O)[O-])no3)ccc2o1
- IC50 [1]: 8.2 µM

Compound: O=c1ccc2cc(OCc3cc(-c4cccc([N+](=O)[O-])c4)no3)ccc2o1
- IC50 [3]: 48.2 µM
- IC50 (COLO 205): 48.3 µM
- IC50 [2]: 44.4 µM
- IC50 (A549): 36.2 µM

Compound: O=c1ccc2cc(OCc3cc(-c4ccc([N+](=O)[O-])cc4)no3)ccc2o1
- IC50 [3]: 42.2 µM
- IC50 (COLO 205): 47.8 µM
- IC50 [2]: 55.8 µM

Compound: N#Cc1ccccc1-c1cc(COc2ccc3oc(=O)ccc3c2)on1
- IC50 [1]: 13.6 µM
- IC50 (A549): 55.8 µM

Compound: COc1ccccc1-c1cc(COc2ccc3oc(=O)ccc3c2)on1
- IC50 [1]: 22.4 µM

Compound: O=c1ccc2cc(OCc3cn(-c4ccccc4)nn3)ccc2o1
- IC50 [3]: 51.5 µM
- IC50 (COLO 205): 48.8 µM
- IC50 [2]: 41.6 µM

Compound: COc1ccc(-n2cc(COc3ccc4oc(=O)ccc4c3)nn2)cc1
- IC50 [3]: 37.8 µM
- IC50 (COLO 205): 32.8 µM
- IC50 [2]: 46.4 µM
- IC50 (A549): 46.8 µM

Compound: N#CCc1ccc(-n2cc(COc3ccc4oc(=O)ccc4c3)nn2)cc1
- IC50 (A549): 29.2 µM

Compound: O=c1ccc2cc(OCc3cn(-c4cccc(CO)c4)nn3)ccc2o1
- IC50 (A549): 35.1 µM

Compound: CC(=O)Nc1ccc(-n2cc(COc3ccc4oc(=O)ccc4c3)nn2)cc1
- IC50 [2]: 40.4 µM

Compound: O=c1ccc2cc(OCc3cn(-c4ccccc4Cl)nn3)ccc2o1
- IC50 (A549): 17.1 µM

Compound: O=c1ccc2cc(OCc3cn(-c4cccc([N+](=O)[O-])c4)nn3)ccc2o1
- IC50 [1]: 49.3 µM
- IC50 [3]: 26.9 µM
- IC50 (COLO 205): 36.6 µM
- IC50 [2]: 20.5 µM

Compound: O=c1ccc2cc(OCc3cn(-c4ccc(Cl)c(Cl)c4)nn3)ccc2o1
- IC50 [3]: 57.3 µM
- IC50 [2]: 47.8 µM

Compound: O=c1ccc2cc(OCc3cn(-c4ccccc4[N+](=O)[O-])nn3)ccc2o1
- IC50 [3]: 55.8 µM
- IC50 [2]: 44.6 µM
- IC50 (A549): 10.2 µM

Compound: O=c1ccc2cc(OCc3cn(-c4ccc([N+](=O)[O-])cc4)nn3)ccc2o1
- IC50 [3]: 44.3 µM
- IC50 (COLO 205): 48.7 µM
- IC50 [2]: 46 µM
- IC50 (A549): 33.6 µM

Compound: N#Cc1ccccc1-n1cc(COc2ccc3oc(=O)ccc3c2)nn1
- IC50 [2]: 52.1 µM
- IC50 (A549): 12.6 µM

Compound: COc1ccccc1-n1cc(COc2ccc3oc(=O)ccc3c2)nn1
- IC50 [2]: 55.2 µM
- IC50 (A549): 18.7 µM

Compound: O=c1ccc2cc(O)ccc2o1 [6-HYDROXYCOUMARIN]
- IC50 [3]: 46.2 µM
- IC50 (COLO 205): 38.7 µM
- IC50 [2]: 35 µM

Compound: Cn1c(=O)n(-c2ccc(C(C)(C)C#N)cc2)c2c3cc(-c4cnc5ccccc5c4)ccc3ncc21 [DACTOLISIB]
- IC50 [1]: 12.3 µM
- IC50 [3]: 0.044 µM
- IC50 (COLO 205): 0.085 µM
- IC50 [2]: 12.4 µM
- IC50 (A549): 6.5 µM
